According to patent US8158593B2, “GPR17 modulators, method of screening and uses thereof” (Universita' degli Studi di Milano, priority 2004, dated 2012):

Assays:
rat GPR17 = molecular target: T1, rat GPR17 (Rattus norvegicus, UniProt Q09QM4); experiment: [35S]GTPγS binding to membranes of 1321N1 cells expressing rat GPR17; type: biochemical; conditions: agonist; 1321N1 cells expressing rat GPR17
T1 construct: expressed in transfected cells; host or cells: 1321N1; pcDNA3.1
Procedure: (§1) [^35S]GTPγS Binding Assay. 1321N1 cells, COS-7 and HEK-293 cells (control and transfected cells) were homogenized in 5 mM TRIS-HCl, 2 mM EDTA, pH 7.4 and centrifuged at 48000 g for 15 min at 4° C. The resulting pellets (plasma membranes) were washed in 50 mM TRIS-HCl, 10 mM MgCl2, pH 7.4 and stored at −80° C. until used. Measurement of nucleotide-stimulated [^35S]GTPγS binding to membranes of cells expressing the human or rat GPR17 receptor was performed as previously described^9-11.
To identify the endogenous ligand of GPR17, the cDNAs from human and rat GPR17 were cloned into the mammalian expression vector pcDNA3.1 and transfected in 1321N1, COS-7 and HEK-293 cells for functional characterization. GPR17 activation was assessed by testing the ability of exogenously-added ligands to increase [^35S]GTPγS binding to purified membranes obtained from transfected cells^9-11. […] The specificity of GPR17 responses were also challenged by assessing the ability of some purinergic and leukotriene receptor antagonists to counteract the increase of [^35S]GTPγS binding evoked by nucleotides and cys-LTs in 1321N1 cells expressing either the human or rat receptor. […] Because both P2Y^2,11,12 and CysLT receptors^3,13 may couple to G proteins of the Gi subfamily, to evaluate the involvement of this class of G-proteins, we preincubated 1321N1 cells expressing hGPR17 with pertussis toxin (PTX) which inactivates Gi proteins, prior to membrane preparation and [^35S]GTPγS binding.
Table 1. Potency of various ligands on [^35S]GTPγS binding to membranes obtaind from 1321N1 cells-transfected with human or rat GPR17. […] All data represent the mean of triplicate determinations from 4-9 independent experiments.

hGPR17 [1] = molecular target: T2, hGPR17 (Homo sapiens, UniProt Q13304); experiment: [35S]GTPγS binding, HEK-293 cells expressing hGPR17; type: biochemical; design: expressed in transfected cells; host or cells: HEK-293 (A4); pcDNA3.1; conditions: HEK-293 cells transfected with hGPR17
T2 sequence (Q13304 29-367): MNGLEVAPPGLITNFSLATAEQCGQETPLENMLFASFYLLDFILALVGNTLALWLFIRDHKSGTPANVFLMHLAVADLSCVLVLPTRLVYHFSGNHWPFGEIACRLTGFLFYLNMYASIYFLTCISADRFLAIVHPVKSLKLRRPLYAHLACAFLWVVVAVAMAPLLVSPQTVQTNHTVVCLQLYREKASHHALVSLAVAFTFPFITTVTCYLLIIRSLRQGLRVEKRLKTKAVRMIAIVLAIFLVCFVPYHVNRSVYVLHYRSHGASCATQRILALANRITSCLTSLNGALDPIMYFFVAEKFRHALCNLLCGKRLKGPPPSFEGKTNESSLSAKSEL
Procedure: as §1
To identify the endogenous ligand of GPR17, the cDNAs from human and rat GPR17 were cloned into the mammalian expression vector pcDNA3.1 and transfected in 1321N1, COS-7 and HEK-293 cells for functional characterization. GPR17 activation was assessed by testing the ability of exogenously-added ligands to increase [^35S]GTPγS binding to purified membranes obtained from transfected cells^9-11. […] The specificity of GPR17 responses were also challenged by assessing the ability of some purinergic and leukotriene receptor antagonists to counteract the increase of [^35S]GTPγS binding evoked by nucleotides and cys-LTs in 1321N1 cells expressing either the human or rat receptor. […]

hGPR17 [2] = molecular target: T2, hGPR17; experiment: Single cell calcium imaging in 1321N1 cells expressing hGPR17; type: cell-based; design: expressed in transfected cells; host or cells: 1321N1 (A1, A5), COS-7 (A3, A6), HEK-293 (A4); pcDNA3.1
Source text: Polychrome IV (TILL Photonics, Germany) was used as light source. Fura-2 and EGFP fluorescence images were collected with a PCO Super […] (Axon Instruments, Forest City, Calif.) and analyzed with the Axon Imaging Workbench 2.2 software (Axon Instruments).

T1 sequence (Q09QM4 whole entry): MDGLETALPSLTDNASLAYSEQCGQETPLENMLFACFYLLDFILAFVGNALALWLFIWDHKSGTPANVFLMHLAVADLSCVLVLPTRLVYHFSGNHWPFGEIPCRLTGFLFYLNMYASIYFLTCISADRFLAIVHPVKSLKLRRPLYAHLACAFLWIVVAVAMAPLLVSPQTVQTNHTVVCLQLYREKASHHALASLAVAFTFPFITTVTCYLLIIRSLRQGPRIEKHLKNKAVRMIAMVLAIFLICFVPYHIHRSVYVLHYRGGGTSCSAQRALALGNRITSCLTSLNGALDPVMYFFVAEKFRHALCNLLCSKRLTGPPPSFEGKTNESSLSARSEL

O=c1ccn([C@@H]2O[C@H](COP(=O)(O)OP(=O)(O)O)[C@@H](O)[C@H]2O)c(=O)[nH]1 [UDP]
EC50 (rat GPR17): 4.6 ± 0.6 µM
response in [35S]GTPγS binding (hGPR17 [1]): induced responses
cells showing rise of [Ca2+]i (hGPR17 [2]): approximately 30%
